The values below come from patent US10189863B2, “5,6-dihydro-4H-benzo[b]thieno-[2,3-d]azepine derivatives” (PULMOCIDE LIMITED, priority 2014, dated 2019).

As a reminder, the CC50 is the concentration that lowers cell viability or growth by half. Read a high CC50 as better tolerance by the cells. As usually defined, the IC50 is the concentration at which inhibition is half-maximal. The term inhibition denotes how much of the control response was suppressed.

Each structure is given as a SMILES string.

The nature of data set [1]: Cell viability: resazurin assay. The class given is cell-based, human. The conditions noted are these: human, HEp2 cells. The procedure, abridged: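 HEp2 cells in 5% FBS DMEM exposed to compounds (0.5% DMSO final) for 5 days at 37 °C/5% CO2, then resazurin added for 6 h; fluorescence read at 545/590 nm. Percent viability loss calculated versus 0.5% DMSO vehicle, with increases shown as negative values; CC50 taken from concentration-response curves where appropriate.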

A further data set has as its system RSV B Washington strain. As to the kind of experiment: Assessment of RSV induced CPE in HEp2 cells (RSV B Washington strain). The class given is cell-based. The note with it: human respiratory syncytial virus, HEp2 cells; for IC50: HEp-2, 144 h, 1 MOI, 6 days, read-out: RSV B CPE IC50; for inhibition at 1 µg/mL / inhibition at 0.1 µg/mL: HEp-2; for inhibition at 1 µg/mL: Inhibition (%) at 1 μg/mL, read-out: RSV B CPE % Inhibition; for inhibition at 0.1 µg/mL: Inhibition (%) at 0.1 μg/mL. The procedure, abridged: (§1)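 HEp2 cells were infected at MOI 1 with RSV A2 or RSV B Washington, with compound added at the same time (0.5% DMSO final). Incubation was 5 days for A2 and 6 days for B, then viability was read by resazurin fluorescence (545/590 nm) after 6 h. IC50, IC75 and IC90 came from concentration-response curves.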

For the next data set, the system named is RSV A2 strain. As to the kind of experiment: Assessment of RSV induced CPE in HEp2 cells (RSV A2 strain). The note with it: human respiratory syncytial virus, HEp2 cells; for IC50: HEp-2, 120 h, 1 MOI, 5 days, read-out: RSV A2 CPE IC50; for inhibition at 0.01 µg/mL / inhibition at 0.1 µg/mL: HEp-2; for inhibition at 0.01 µg/mL: Inhibition (%) at 0.01 μg/mL; for inhibition at 0.1 µg/mL: Inhibition (%) at 0.1 μg/mL, read-out: RSV A2 CPE % Inhibition. The class given is cell-based. The procedure, abridged:
as §1

On to `COCCOc1cccc(F)c1NC(=O)c1cc2c(s1)-c1ccccc1N(C(=O)c1ccc(NC(=O)c3cc(C)cnc3N3CC4(CCOCC4)C3)cc1)CC2` [Example 55, N-(2-fluoro-6-(2-methoxyethoxy)phenyl)-6-(4-(5-methyl-2-(7-oxa-2-azaspiro[3.5]nonan-2-yl)nicotinamido)benzoyl)-5,6-dihydro-4H-benzo[b]thieno[2,3-d]azepine-2-carboxamide], for which, in data set [1], the CC50 at 5 days was more than 12.9 µM. For the same compound, in the data set on RSV B Washington strain, the IC50 is 16.2 nM and the inhibition at 1 µg/mL was determined as 100%. Besides, in the data set on RSV A2 strain, the half-maximal inhibitory concentration (IC50) was found to be 0.15 nM and the inhibition at 0.01 µg/mL turned out to be 100%.
Consider `Cc1cc(C(=O)Nc2ccc(C(=O)N3CCc4cc(C(=O)Nc5ccccc5F)sc4-c4ccccc43)cc2)c(N2CC3(CCOCC3)C2)nc1C` [Example 43, 6-(4-(5,6-dimethyl-2-(7-oxa-2-azaspiro[3.5]nonan-2-yl)nicotinamido)benzoyl)-N-(2-fluorophenyl)-5,6-dihydro-4H-benzo[b]thieno[2,3-d]azepine-2-carboxamide], for which the cytotoxic concentration (CC50) at 5 days in data set [1] was more than 14 µM. Besides, in the data set with RSV B Washington strain, the concentration for half-maximal inhibition (IC50) came out at 59.4 nM and the inhibition at 1 µg/mL turned out to be 72%. In addition, in the data set on RSV A2 strain, the IC50 was 0.12 nM and the inhibition at 0.1 µg/mL was found to be 100%.
In turn, `Cc1cccc(F)c1NC(=O)c1cc2c(s1)-c1ccccc1N(C(=O)c1ccc(NC(=O)c3cc4c(nc3N3CC5(CCOCC5)C3)CCOC4)cc1)CC2` [Example 12, N-(4-(2-((2-Fluoro-6-methylphenyl)carbamoyl)-5,6-dihydro-4H-benzo[b]thieno[2,3-d]azepine-6-carbonyl)phenyl)-2-(7-oxa-2-azaspiro[3.5]nonan-2-yl)-7,8-di hydro-5H-pyrano[4,3-b]pyridine-3-carboxamide] registered a half-maximal cytotoxic concentration (CC50) at 5 days in data set [1] of more than 13.2 µM. In the data set with RSV B Washington strain, the half-maximal inhibitory concentration (IC50) is 1.3 nM and the inhibition at 1 µg/mL came out at 98%. For the same compound, in the data set with RSV A2 strain, the concentration for half-maximal inhibition (IC50) is 0.42 nM and the inhibition at 0.01 µg/mL was 100%.
For `O=C(Nc1ccccc1F)c1cc2c(s1)-c1ccccc1N(C(=O)c1ccc(NC(=O)c3cc(C4CC4)cnc3N3CC4(CCOCC4)C3)cc1)CC2` [Example 4, 6-(4-(5-Cyclopropyl-2-(7-oxa-2-azaspiro[3.5]nonan-2-yl)nicotinamido)benzoyl)-N-(2-fluorophenyl)-5,6-dihydro-4H-benzo[b]thieno[2,3-d]azepine-2-carboxamide] the same measures were more than 13.7 µM, 49.3 nM, 83%, 2.1 nM and 100%.
Regarding `Cc1cccc(F)c1NC(=O)c1cc2c(s1)-c1ccccc1N(C(=O)c1ccc(NC(=O)c3cc4c(nc3N3CC5(CCOCC5)C3)CCC4)cc1F)CC2` [Example 78, 6-(4-(2-(7-oxa-2-azaspiro[3.5]nonan-2-yl)-6,7-dihydro-5H-cyclopenta[b]pyridine-3-carboxamido)-2-fluorobenzoyl)-N-(2-fluoro-6-methylphenyl)-5,6-dihydro-4H-benzo[b]thieno [2,3-d]azepine-2-carboxamide], the CC50 at 5 days in data set [1] is more than 13.2 µM. In the data set with RSV B Washington strain, the IC50 was found to be 1.3 nM and the inhibition at 1 µg/mL was 94%. Also, in the data set with RSV A2 strain, the half-inhibitory concentration (IC50) stood at 2.4 nM and the inhibition at 0.01 µg/mL was determined as 89%.
`Cc1cnc(N2CCC3(CC2)COC3)c(C(=O)Nc2ccc(C(=O)N3CCc4cc(C(=O)Nc5c(F)cccc5C(F)(F)F)sc4-c4ccccc43)cc2)c1` [Example 94, N-(2-fluoro-6-(trifluoromethyl)phenyl)-6-(4-(5-methyl-2-(2-oxa-7-azaspiro[3.5]nonan-7-yl)nicotinamido)benzoyl)-5,6-dihydro-4H-benzo[b]thieno[2,3-d]azepine-2-carboxamide] displayed a half-maximal cytotoxic concentration (CC50) at 5 days in data set [1] of more than 13 µM. Also, in the data set on RSV B Washington strain, the 50% inhibitory concentration (IC50) turned out to be 811 nM and the inhibition at 1 µg/mL worked out at 54%. Moreover, in the data set on RSV A2 strain, the 50% inhibitory concentration (IC50) was 1.4 nM and at 0.01 µg/mL the inhibition was 100%.
The compound `Cc1cnc(N2CC3(CCOCC3)C2)c(C(=O)Nc2ccc(C(=O)N3CCc4cc(C(=O)Nc5c(F)cc(F)cc5F)sc4-c4ccccc43)c(F)c2)c1` [Example 59, 6-(2-fluoro-4-(5-methyl-2-(7-oxa-2-azaspiro[3.5]nonan-2-yl)nicotinamido)benzoyl)-N-(2,4,6-trifluorophenyl)-5,6-di-hydro-4H-benzo[b]thieno[2,3-d]azepine-2-carboxamide] returned a CC50 at 5 days in data set [1] of more than 13.2 µM. Besides, in the data set on RSV B Washington strain, the half-maximal inhibitory concentration (IC50) was determined as 13.8 nM and the inhibition at 1 µg/mL worked out at 93%. Further, in the data set on RSV A2 strain, the concentration for half-maximal inhibition (IC50) is 0.23 nM and the inhibition at 0.1 µg/mL is 100%.
As for `Cc1cnc(N2CC3(CCOCC3)C2)c(C(=O)Nc2ccc(C(=O)N3CCc4cc(C(=O)Nc5c(F)cccc5I)sc4-c4ccccc43)cc2)c1` [Example 6, N-(2-Fluoro-6-iodophenyl)-6-(4-(5-methyl-2-(7-oxa-2-azaspiro[3.5]nonan-2-yl)nicotinamido)benzoyl)-5,6-dihydro-4H-benzo[b]thieno[2,3-d]azepine-2-carboxamide], in data set [1], the 50% cytotoxic concentration (CC50) at 5 days is more than 12.1 µM. For the same compound, in the data set on RSV B Washington strain, the IC50 worked out at 4.2 nM and the inhibition at 1 µg/mL was 100%. In the data set on RSV A2 strain, the IC50 stood at 0.13 nM and the inhibition at 0.01 µg/mL came out at 100%.
In data set [1], `O=C(Nc1c(F)cccc1F)c1cc2c(s1)-c1ccccc1N(C(=O)c1ccc(NC(=O)c3cccnc3N3CC4(CCOCC4)C3)cc1)CC2` [Example 19, 6-(4-(2-(7-oxa-2-azaspiro[3.5]nonan-2-yl)nicotinamido)benzoyl)-N-(2,6-difluorophenyl)-5,6-dihydro-4H-benzo[b] thieno[2,3-d]azepine-2-carboxamide] yielded a CC50 at 5 days of more than 14.2 µM. Further, in the data set with RSV B Washington strain, the concentration for half-maximal inhibition (IC50) amounted to 28 nM and the inhibition at 0.1 µg/mL is 100%. Further, in the data set on RSV A2 strain, the half-inhibitory concentration (IC50) amounted to 0.14 nM and the inhibition at 0.1 µg/mL was 88%.
Consider `Cc1cnc(N2CC3(CCOCC3)C2)c(C(=O)Nc2ccc(C(=O)N3CCc4cc(C(=O)Nc5c(F)cc(F)cc5F)sc4-c4ccccc43)cc2)c1` [Example 48, 6-(4-(5-methyl-2-(7-oxa-2-azaspiro[3.5]nonan-2-yl)nicotinamido)benzoyl)-N-(2,4,6-trifluorophenyl)-5,6-dihydro-4H-benzo[b]thieno[2,3-d]azepine-2-carboxamide], for which, in data set [1], the CC50 at 5 days is more than 13.6 µM. Also, in the data set on RSV B Washington strain, the IC50 was determined as 1.5 nM and the inhibition at 1 µg/mL was determined as 100%. Moreover, in the data set with RSV A2 strain, the half-inhibitory concentration (IC50) turned out to be 0.14 nM and the inhibition at 0.1 µg/mL was determined as 100%.
Compound `[2H]c1c([2H])c(C(=O)N2CCc3cc(C(=O)Nc4c(C)cccc4F)sc3-c3ccccc32)c([2H])c([2H])c1NC(=O)c1cc(C)cnc1N1CC2(CCOCC2)C1` [Example 70] returned a CC50 at 5 days in data set [1] of more than 13.9 µM. In the data set with RSV B Washington strain, the half-maximal inhibitory concentration (IC50) came out at 1.2 nM and the inhibition at 1 µg/mL stood at 100%. Also, in the data set with RSV A2 strain, the IC50 stood at 0.18 nM and testing at 0.01 µg/mL gave an inhibition of 76%.
In turn, `Cc1cnc(N2CC3(CCOCC3)C2)c(C(=O)Nc2ccc(C(=O)N3CCc4cc(C(=O)Nc5c(F)cccc5F)sc4-c4ccccc43)cc2)c1` [Example 47, N-(2,6-difluorophenyl)-6-(4-(5-methyl-2-(7-oxa-2-aza-spiro[3.5]nonan-2-yl)nicotinamido)benzoyl)-5,6-dihydro-4H-benzo[b]thieno[2,3-d]azepine-2-carboxamide] had a cytotoxic concentration (CC50) at 5 days in data set [1] of more than 13.9 µM. Moreover, in the data set on RSV B Washington strain, the IC50 amounted to 5.7 nM and the inhibition at 0.1 µg/mL turned out to be 100%. For the same compound, in the data set with RSV A2 strain, the IC50 stood at 0.13 nM and the inhibition at 0.01 µg/mL came out at 100%.
`O=C(Nc1ccc(F)cc1F)c1cc2c(s1)-c1ccccc1N(C(=O)c1ccc(NC(=O)c3cccnc3N3CC4(CCOCC4)C3)cc1)CC2` [Example 20, 6-(4-(2-(7-oxa-2-azaspiro[3.5]nonan-2-yl)nicotinamido)benzoyl)-N-(2,4-difluorophenyl)-5,6-dihydro-4H-benzo[b] thieno[2,3-d]azepine-2-carboxamide] yielded a CC50 at 5 days in data set [1] of more than 14.2 µM. Also, in the data set on RSV B Washington strain, the IC50 was 129 nM and the inhibition at 1 µg/mL stood at 80%. Moreover, in the data set with RSV A2 strain, the IC50 was 0.36 nM and the inhibition at 0.1 µg/mL stood at 100%.
Take `Cc1cccc(F)c1NC(=O)c1cc2c(s1)-c1ccccc1N(C(=O)c1ccc(NC(=O)c3cc4sccc4nc3N3CC4(CCOCC4)C3)cc1)CC2` [Example 89, 6-(4-(5-(7-oxa-2-azaspiro[3.5]nonan-2-yl)thieno[3,2-b]pyridine-6-carboxamido)benzoyl)-N-(2-fluoro-6-methyl-phenyl)-5,6-dihydro-4H-benzo[b]thieno[2,3-d]azepine-2-carboxamide]: in data set [1], the CC50 at 5 days was more than 13.2 µM. Further, in the data set on RSV B Washington strain, the IC50 is 19.4 nM and the inhibition at 0.1 µg/mL was determined as 100%. Further, in the data set on RSV A2 strain, the 50% inhibitory concentration (IC50) worked out at 0.5 nM and the inhibition at 0.01 µg/mL was 100%.
Regarding `Cc1cnc(N2CC3(CCOCC3)C2)c(C(=O)Nc2ccc(C(=O)N3CCc4cc(C(=O)Nc5c(F)cccc5C5CC5)sc4-c4ccccc43)cc2)c1` [Example 7, N-(2-Cyclopropyl-6-fluorophenyl)-6-(4-(5-methyl-2-(7-oxa-2-azaspiro[3.5]nonan-2-yl)nicotinamido)benzoyl)-5,6-dihydro-4H-benzo[b]thieno[2,3-d]azepine-2-carboxamide], the CC50 at 5 days in data set [1] was more than 13.5 µM. Moreover, in the data set with RSV B Washington strain, the IC50 stood at 98.6 nM and the inhibition at 1 µg/mL stood at 94%. Further, in the data set with RSV A2 strain, the 50% inhibitory concentration (IC50) is 0.15 nM and the inhibition at 0.1 µg/mL is 100%.
